Results from EPA's ToxValDB 9.5.

Tests used:
Rattus norvegicus [1] = details: oral
Mus musculus [2] = details: developmental; inhalation; M/F; delayed fetal ossification
Mus musculus [3] = details: developmental; duration: 9 days; inhalation; M/F; CF1; developmental
Canidae = details: subchronic, oral, diet, Beagle
Rattus norvegicus [4] = details: oral; for LD50: acute
Oryctolagus sp. = details: acute; dermal
Rattus norvegicus [5] = details: chronic; oral; M/F; body weight depression
Rattus norvegicus [6] = details: chronic; duration: 1 years; oral; Increased liver and uterus/cervix weights
[7] = reproduction developmental, duration: 15 days, diet, Sprague-Dawley
[8] = subchronic, duration: 90 days, diet

`ClCCOCOCCCl` [Bis(2-chloroethoxy)methane] was tested. Which NOAEL (Rattus norvegicus [1]; subchronic, duration: 90 days, gavage, M/F, Sprague-Dawley, hepatic) did it give?
The NOAEL was 10 mg/kg-day.

With `CCCl` [Chloroethane] as the compound, how does the NOAEL (Rattus norvegicus [1]; short-term, duration: 14 days, drinking water, F, Fischer 344, Whole Body Effects) read?
Its NOAEL is 361 mg/kg-day.

And the LOAEL (Mus musculus [2])?
The LOAEL was 13000 mg/m3.

And the NOAEL (Mus musculus [2])?
Its NOAEL is 4000 mg/m3.

What about the NOAEL (Mus musculus [3]) of the same compound?
The NOAEL was 3970 mg/m3.

Which NOAEL (Canidae; duration: 13 weeks) does the source give for `Cc1cc(C(C)(C)C)c(O)c(C)c1Cn1c(=O)n(Cc2c(C)cc(C(C)(C)C)c(O)c2C)c(=O)n(Cc2c(C)cc(C(C)(C)C)c(O)c2C)c1=O` [Cyanox CY 1790] here?
Its NOAEL is 46 mg/kg-day.

And the NOAEL (Canidae; duration: 30 days)?
Its NOAEL is 400 mg/kg-day.

And the NOAEL (Canidae; duration: 90 days)?
Its NOAEL is 30 mg/kg-day.

And the LD50 (Rattus norvegicus [4]; Wistar)?
The LD50 was greater than 10000 mg/kg.

And the LOAEL (Rattus norvegicus [4]; [7])?
The LOAEL was 10000 ppm.

And the NOAEL (Rattus norvegicus [4]; [7])?
The NOAEL was 1000 ppm.

What about the NOAEL (Rattus norvegicus [4]; reproduction developmental, diet, Sprague-Dawley, generation: F0) of the same compound?
Its NOAEL is 1000 ppm.

What about the NOAEL (Rattus norvegicus [4]; reproduction developmental, diet, Sprague-Dawley, generation: F1) of the same compound?
The NOAEL was 20000 ppm.

What about the NOAEL (Rattus norvegicus [4]; subchronic, duration: 90 days, diet, Sprague-Dawley) of the same compound?
The NOAEL was 400 mg/kg-day.

What about the LD50 (Oryctolagus sp.) of the same compound?
The LD50 was greater than 5000 mg/kg.

Which results are given for `O=C1CCCCC1` [Cyclohexanone]?
NOAEL (Rattus norvegicus [1]; chronic, duration: 25 weeks, drinking water, M, Fischer 344, Whole Body Effects): 731 mg/kg-day; LOAEL (Rattus norvegicus [5]): 910 mg/kg-day; NOAEL (Rattus norvegicus [5]): 462 mg/kg-day

`C=CC[N+](C)(C)CC=C.[Cl-]` [Diallyldimethylammonium chloride] was tested. Which LOAEL (Canidae; duration: 90 days) did it give?
Its LOAEL is 800 mg/kg-day.

And the NOAEL (Canidae; duration: 90 days)?
Its NOAEL is 200 mg/kg-day.

What about the LD50 (Rattus norvegicus [4]; gavage, Sprague-Dawley) of the same compound?
Its LD50 is 2520 mg/kg.

What about the LD50 (Rattus norvegicus [4]; gavage, Wistar) of the same compound?
Its LD50 is 3930 mg/kg.

And the NOAEL (Rattus norvegicus [4]; developmental, duration: 9 days, gavage, Sprague-Dawley)?
Its NOAEL is 6 mg/kg-day.

What about the NOAEL (Rattus norvegicus [4]; reproduction developmental, duration: 9 days, gavage, F, Sprague-Dawley) of the same compound?
Its NOAEL is 6 mg/kg-day.

And the NOAEL (Rattus norvegicus [4]; reproduction developmental, duration: 133 days, gavage, Sprague-Dawley, generation: F0)?
Its NOAEL is 1.25 mg/kg-day.

What about the NOAEL (Rattus norvegicus [4]; reproduction developmental, duration: 133 days, gavage, Sprague-Dawley, generation: F1) of the same compound?
The NOAEL was 1.25 mg/kg-day.

What about the NOAEL (Rattus norvegicus [4]; reproduction developmental, duration: 133 days, gavage, Sprague-Dawley, generation: F2) of the same compound?
Its NOAEL is 1.25 mg/kg-day.

What about the LOAEL (Rattus norvegicus [4]; [8]) of the same compound?
The LOAEL was 500 mg/kg-day.

What about the NOAEL (Rattus norvegicus [4]; [8]) of the same compound?
The NOAEL was 50 mg/kg-day.

What does the source list for `COC(=O)c1ccccc1C(=O)OC` [Dimethyl phthalate]?
LOAEL (Rattus norvegicus [1]; short-term, duration: 1 weeks, diet, M, Wistar): 302 mg/kg-day; LD50 (Rattus norvegicus [4]): 6900 mg/kg; NOAEL (Rattus norvegicus [4]; developmental, duration: 10 days, diet, Sprague-Dawley): > 3570 mg/kg-day; NOAEL (Rattus norvegicus [4]; reproduction developmental, duration: 10 days, diet, F, Sprague-Dawley): 840 mg/kg-day

For `[Lu]` [Lutetium], which NOAEL (Rattus norvegicus [1]; subchronic, duration: 90 days, diet, M/F, CRW) is on record?
Its NOAEL is 504 mg/kg-day.

With `CO[C@H]1C[C@H](O[C@@H]2/C(C)=C/C[C@@H]3C[C@@H](C[C@]4(CC[C@H](C)[C@@H](C5CCCCC5)O4)O3)OC(=O)[C@@H]3C=C(C)/C(=N/O)[C@H]4OC/C(=C\C=C\[C@@H]2C)[C@]43O)O[C@@H](C)[C@@H]1O` [Selamectin] as the compound, how does the NOAEL (Rattus norvegicus [6]) read?
The NOAEL was 5 mg/kg-day.
